Key:
[1] = biological target: T1, His tagged PTPN2 (TC45) protein (Homo sapiens, UniProt P17706); test: Mobility shift assay used to determine potency of PTPN2 inhibitors; type: biochemical; settings: enzyme 0.5 nM, substrate 2 μM; read-out: PTPN2 MSA IC50
T1 construct: made in house
T1 sequence (P17706 with tags, fused parts or gaps isoform P17706-2): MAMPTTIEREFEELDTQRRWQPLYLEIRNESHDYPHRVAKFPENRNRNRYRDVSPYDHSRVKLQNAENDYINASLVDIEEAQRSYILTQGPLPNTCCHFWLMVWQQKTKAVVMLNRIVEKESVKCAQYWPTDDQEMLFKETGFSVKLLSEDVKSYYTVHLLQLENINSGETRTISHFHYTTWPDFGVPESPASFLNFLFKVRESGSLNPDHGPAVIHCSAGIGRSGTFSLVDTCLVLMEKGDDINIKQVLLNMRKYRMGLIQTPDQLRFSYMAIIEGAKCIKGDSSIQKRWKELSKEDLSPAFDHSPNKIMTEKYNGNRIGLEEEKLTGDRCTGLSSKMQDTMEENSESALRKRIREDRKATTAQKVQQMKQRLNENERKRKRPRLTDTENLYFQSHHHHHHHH
Method in brief: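 Enzyme (0.5 nM) preincubated with compound (12-point, 1:3 dilution) 10 min at room temperature in 50 mM HEPES pH 7.5, 1 mM EGTA, 10 mM EDTA, 0.01% Tween 20, 2 mM DTT; OG488-labelled phospho-insulin-receptor peptide substrate (2 μM) added for 10 min, then quenched. Microfluidic mobility shift (ex 488/em 530 nm) gave % conversion; IC50 from % inhibition.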

[2] = biological target: T2, His tagged full-length PTPN1 protein (Homo sapiens, UniProt P18031); test: Mobility shift assay (MSA) used to determine potency of PTPN1 inhibitors; type: biochemical; settings: enzyme 0.5 nM, substrate 2 μM
T2 construct: made in house
T2 sequence (P18031 with tags, fused parts or gaps): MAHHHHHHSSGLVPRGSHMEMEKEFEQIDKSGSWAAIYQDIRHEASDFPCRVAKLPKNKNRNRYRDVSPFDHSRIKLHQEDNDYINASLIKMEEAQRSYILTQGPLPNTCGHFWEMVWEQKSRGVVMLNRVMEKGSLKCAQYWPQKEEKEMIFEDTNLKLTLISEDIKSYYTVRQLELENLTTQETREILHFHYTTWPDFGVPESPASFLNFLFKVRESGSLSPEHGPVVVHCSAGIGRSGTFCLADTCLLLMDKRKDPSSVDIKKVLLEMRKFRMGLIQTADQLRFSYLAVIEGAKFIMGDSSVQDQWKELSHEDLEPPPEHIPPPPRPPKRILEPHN
Method in brief: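 Full-length His-tagged human PTPN1 (0.5 nM) was preincubated 10 min at room temperature with compound (12-point, 1:3 dilution) in HEPES pH 7.5 buffer with EGTA, EDTA, Tween 20 and DTT. A 2 μM fluorescent phospho-insulin receptor peptide was then added for 10 min before quench. Mobility-shift % conversion gave % inhibition and IC50.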

[3] = tested on: B16F10 mouse melanoma cells; test: B16F10 IFNγ-induced cellular growth inhibition assay; type: cell-based; settings: B16-F10, with 0.5 ng/mL IFNγ, read-out: B16F10 GI IC50
Method in brief: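 B16F10 cells grown in DMEM+10% FBS, with or without 0.5 ng/mL final mouse IFNγ, and dosed in triplicate at 100 μM to 0.001 μM final (0.1% DMSO). Confluence imaged every 6 h for 5 days; percent growth inhibition versus DMSO/with-IFNγ control taken once DMSO/no-IFNγ wells exceeded 95% confluence, giving IC50.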

Which IC50 [1] does the source give for O=C1CN(c2c(O)cc3c(c2F)C[C@@H]([C@@H]2CCNC2)CC3)S(=O)(=O)N1 (single isomer, unassigned) [Compound 136, 5-{(7RS)-1-fluoro-3-hydroxy-7-[(3RS)-pyrrolidin-3-yl]-5,6,7,8-tetrahydronaphthalen-2-yl}-1λ^6,2,5-thiadiazolidine-1,1,3-trione] here?
The IC50 was 10 to 100 nM.

And the IC50 [2]?
The IC50 was 10 to 100 nM.

What about the IC50 [3] of the same compound?
The IC50 was over 100000 nM.

How did the IC50 [1] turn out when O=C1CN(c2c(O)cc3c(c2F)CC(NCCC(O)C(F)(F)F)CC3)S(=O)(=O)N1 (stereo not drawn) [Compound 151, 5-{1-fluoro-3-hydroxy-7-[(4,4,4-trifluoro-3-hydroxybutyl)amino]-5,6,7,8-tetrahydronaphthalen-2-yl}-1λ^6,2,5-thiadiazolidine-1,1,3-trione] was run?
The IC50 was 1 to 10 nM.

What about the IC50 [2] of the same compound?
Its IC50 is 10 to 100 nM.

What about the IC50 [3] of the same compound?
The IC50 was 1000 to 10000 nM.

How did the IC50 [1] turn out when CCCC1(N)CCc2cc(O)c(N3CC(=O)NS3(=O)=O)c(F)c2C1 (stereo not drawn) [Compound 255, 5-(7-amino-1-fluoro-3-hydroxy-7-propyl-5,6,7,8-tetrahydronaphthalen-2-yl)-1λ^6,2,5-thiadiazolidine-1,1,3-trione] was run?
Its IC50 is over 100 nM.

And the IC50 [2]?
The IC50 was 10 to 100 nM.

And the IC50 [3]?
The IC50 was 1000 to 10000 nM.

How did the IC50 [1] turn out when O=C1CN(c2c(O)cc3c(c2F)CN(CCC2CC4CCC2O4)CC3)S(=O)(=O)N1 (stereo not drawn) [Compound 225, 5-{8-fluoro-6-hydroxy-2-[2-(7-oxabicyclo[2.2.1]heptan-2-yl)ethyl]-1,2,3,4-tetrahydroisoquinolin-7-yl}-1λ^6,2,5-thiadiazolidine-1,1,3-trione] was run?
Its IC50 is 1 to 10 nM.

And the IC50 [2]?
The IC50 was 10 to 100 nM.

What about the IC50 [3] of the same compound?
Its IC50 is 1000 to 10000 nM.

Which results are given for CO[C@H]1CCc2cc(O)c(N3CC(=O)NS3(=O)=O)c(F)c2C1 (single isomer, unassigned) [Compound 109]?
IC50 [1]: 10 to 100 nM; IC50 [2]: 10 to 100 nM; IC50 [3]: 10000 to 100000 nM

O=C1CN(c2c(O)cc3c(c2F)CC(NCCO)CC3)S(=O)(=O)N1 (stereo not drawn) [Compound 180, 5-{1-fluoro-3-hydroxy-7-[(2-hydroxyethyl)amino]-5,6,7,8-tetrahydronaphthalen-2-yl}-1λ^6,2,5-thiadiazolidine-1,1,3-trione] was tested. Which IC50 [1] did it give?
The IC50 was 10 to 100 nM.

And the IC50 [2]?
The IC50 was over 100 nM.

What about the IC50 [3] of the same compound?
The IC50 was 1000 to 10000 nM.

Which results are given for O=C1CN(c2c(O)cc3c(c2F)CC(NCC(O)C2CC2)CC3)S(=O)(=O)N1 (stereo not drawn) [Compound 188, 5-{7-[(2-cyclopropyl-2-hydroxyethyl)amino]-1-fluoro-3-hydroxy-5,6,7,8-tetrahydronaphthalen-2-yl}-1λ^6,2,5-thiadiazolidine-1,1,3-trione]?
IC50 [1]: 10 to 100 nM; IC50 [2]: 10 to 100 nM; IC50 [3]: < 1000 nM

O=C1CN(c2c(O)cc3c(c2F)C[C@@H](NCCC2CC2)CC3)S(=O)(=O)N1 (single isomer, unassigned) [Compound 134] was tested. Which IC50 [1] did it give?
The IC50 was 10 to 100 nM.

And the IC50 [2]?
Its IC50 is 10 to 100 nM.

And the IC50 [3]?
Its IC50 is 1000 to 10000 nM.

Which results are given for O=C1CN(c2c(O)cc3c(c2F)CC(OCCCC(F)(F)F)CC3)S(=O)(=O)N1 (stereo not drawn) [Compound 142, 5-[1-fluoro-3-hydroxy-7-(4,4,4-trifluorobutoxy)-5,6,7,8-tetrahydronaphthalen-2-yl]-1λ^6,2,5-thiadiazolidine-1,1,3-trione]?
IC50 [1]: 1 to 10 nM; IC50 [2]: 10 to 100 nM; IC50 [3]: 10000 to 100000 nM

What does the source list for CC(C)C1CCN(C2CCc3cc(O)c(N4CC(=O)NS4(=O)=O)c(F)c3C2)C1 (stereo not drawn) [Compound 172, 5-{1-fluoro-3-hydroxy-7-[3-(propan-2-yl)pyrrolidin-1-yl]-5,6,7,8-tetrahydronaphthalen-2-yl}-1λ^6,2,5-thiadiazolidine-1,1,3-trione]?
IC50 [1]: 10 to 100 nM; IC50 [2]: 10 to 100 nM; IC50 [3]: 1000 to 10000 nM

CC(C)C(O)CNC1CCc2cc(O)c(N3CC(=O)NS3(=O)=O)c(F)c2C1 (stereo not drawn) [Compound 187, 5-{1-fluoro-3-hydroxy-7-[(2-hydroxy-3-methylbutyl)amino]-5,6,7,8-tetrahydronaphthalen-2-yl}-1λ^6,2,5-thiadiazolidine-1,1,3-trione] was tested. Which IC50 [1] did it give?
The IC50 was 1 to 10 nM.

What about the IC50 [2] of the same compound?
Its IC50 is 1 to 10 nM.

And the IC50 [3]?
The IC50 was under 1000 nM.

With O=C1CN(c2c(O)cc3c(c2F)CC(NCCc2ccccn2)CC3)S(=O)(=O)N1 (stereo not drawn) [Compound 135, 5-(1-fluoro-3-hydroxy-7-{[2-(pyridin-2-yl)ethyl]amino}-5,6,7,8-tetrahydronaphthalen-2-yl)-1λ^6,2,5-thiadiazolidine-1,1,3-trione] as the compound, how does the IC50 [1] read?
Its IC50 is 10 to 100 nM.

What about the IC50 [2] of the same compound?
The IC50 was 10 to 100 nM.

And the IC50 [3]?
The IC50 was 1000 to 10000 nM.

For O=C1CN(c2c(O)cc3c(c2F)CC(NCC(F)(F)CC2CC2)CC3)S(=O)(=O)N1 (stereo not drawn) [Compound 126, 5-{7-[(3-cyclopropyl-2,2-difluoropropyl)amino]-1-fluoro-3-hydroxy-5,6,7,8-tetrahydronaphthalen-2-yl}-1λ^6,2,5-thiadiazolidine-1,1,3-trione], which IC50 [1] is on record?
Its IC50 is 1 to 10 nM.

And the IC50 [2]?
Its IC50 is 1 to 10 nM.

What about the IC50 [3] of the same compound?
The IC50 was 1000 to 10000 nM.

O=C1CN(c2c(O)cc3c(c2F)CC(OCC2CC2)CC3)S(=O)(=O)N1 (stereo not drawn) [Compound 107, 5-[7-(cyclopropylmethoxy)-1-fluoro-3-hydroxy-5,6,7,8-tetrahydronaphthalen-2-yl]-1λ^6,2,5-thiadiazolidine-1,1,3-trione] was tested. Which IC50 [1] did it give?
Its IC50 is 10 to 100 nM.

And the IC50 [2]?
The IC50 was 10 to 100 nM.

And the IC50 [3]?
The IC50 was 10000 to 100000 nM.

What does the source list for O=C1CN(c2c(O)cc3c(c2F)CC(NCCOC(F)F)CC3)S(=O)(=O)N1 (stereo not drawn) [Compound 157, 5-(7-{[2-(difluoromethoxy)ethyl]amino}-1-fluoro-3-hydroxy-5,6,7,8-tetrahydronaphthalen-2-yl)-1λ^6,2,5-thiadiazolidine-1,1,3-trione]?
IC50 [1]: 1 to 10 nM; IC50 [2]: 10 to 100 nM; IC50 [3]: 1000 to 10000 nM

CC1(C)CC1CCCN1CCc2cc(O)c(N3CC(=O)NS3(=O)=O)c(F)c2C1 (stereo not drawn) [Compound 288, 5-{2-[3-(2,2-dimethylcyclopropyl)propyl]-8-fluoro-6-hydroxy-1,2,3,4-tetrahydroisoquinolin-7-yl}-1λ^6,2,5-thiadiazolidine-1,1,3-trione] was tested. Which IC50 [1] did it give?
The IC50 was 10 to 100 nM.

What about the IC50 [2] of the same compound?
Its IC50 is 1 to 10 nM.

And the IC50 [3]?
The IC50 was 1000 to 10000 nM.

With CC(C)(CO)CCN[C@@H]1CCc2cc(O)c(N3CC(=O)NS3(=O)=O)c(F)c2C1 (single isomer, unassigned) [Compound 308] as the compound, how does the IC50 [1] read?
Its IC50 is 1 to 10 nM.

What about the IC50 [2] of the same compound?
The IC50 was 1 to 10 nM.

And the IC50 [3]?
The IC50 was under 1000 nM.

CC(C)(O)CCNC1CCc2cc(O)c(N3CC(=O)NS3(=O)=O)c(F)c2C1 (stereo not drawn) [Compound 127, 5-{1-fluoro-3-hydroxy-7-[(3-hydroxy-3-methylbutyl)amino]-5,6,7,8-tetrahydronaphthalen-2-yl}-1λ^6,2,5-thiadiazolidine-1,1,3-trione] was tested. Which IC50 [1] did it give?
The IC50 was 1 to 10 nM.

What about the IC50 [2] of the same compound?
Its IC50 is 1 to 10 nM.

What about the IC50 [3] of the same compound?
The IC50 was under 1000 nM.

O=C1CN(c2c(O)cc3c(c2F)CC(NCCC(O)(C(F)(F)F)C(F)(F)F)CC3)S(=O)(=O)N1 (stereo not drawn) [Compound 130, 5-(1-fluoro-3-hydroxy-7-{[4,4,4-trifluoro-3-hydroxy-3-(trifluoromethyl)butyl]amino}-5,6,7,8-tetrahydronaphthalen-2-yl)-1λ^6,2,5-thiadiazolidine-1,1,3-trione] was tested. Which IC50 [1] did it give?
Its IC50 is 1 to 10 nM.

What about the IC50 [2] of the same compound?
Its IC50 is 1 to 10 nM.

What about the IC50 [3] of the same compound?
The IC50 was 1000 to 10000 nM.

How did the IC50 [1] turn out when COCCOC1CCc2cc(O)c(N3CC(=O)NS3(=O)=O)c(F)c2C1 (stereo not drawn) [Compound 106, 5-[1-fluoro-3-hydroxy-7-(2-methoxyethoxy)-5,6,7,8-tetrahydronaphthalen-2-yl]-1λ^6,2,5-thiadiazolidine-1,1,3-trione] was run?
The IC50 was 10 to 100 nM.

And the IC50 [2]?
The IC50 was 10 to 100 nM.

And the IC50 [3]?
Its IC50 is 10000 to 100000 nM.

What does the source list for CC(C)CCNCC1Cc2cc(O)c(N3CC(=O)NS3(=O)=O)c(F)c2C1 (stereo not drawn) [Compound 268, 5-(4-fluoro-6-hydroxy-2-{[(3-methylbutyl)amino]methyl}-2,3-dihydro-1H-inden-5-yl)-1λ^6,2,5-thiadiazolidine-1,1,3-trione]?
IC50 [1]: 10 to 100 nM; IC50 [2]: 10 to 100 nM; IC50 [3]: 1000 to 10000 nM

Which results are given for O=C1CN(c2c(O)cc3c(c2F)CC(NCCC(C(F)(F)F)C(F)(F)F)CC3)S(=O)(=O)N1 (stereo not drawn) [Compound 131, 5-(1-fluoro-3-hydroxy-7-{[4,4,4-trifluoro-3-(trifluoromethyl)butyl]amino}-5,6,7,8-tetrahydronaphthalen-2-yl)-1λ^6,2,5-thiadiazolidine-1,1,3-trione]?
IC50 [1]: 1 to 10 nM; IC50 [2]: 1 to 10 nM; IC50 [3]: < 1000 nM

Reference: patent US10851073B2, “Protein tyrosine phosphatase inhibitors and methods of use thereof” (Calico Life Sciences LLC, priority 2019, dated 2020)
